Results from patent US9023882B2, “5-membered nitrogen containing heterocyclic derivatives and pharmaceutical compositions comprising the same” (Kissei Pharmaceutical Co., Ltd., priority 2007, dated 2015).

Target: Xanthine oxidase (from bovine milk, Sigma) (Bos taurus (Bovine), UniProt P80457)
Experiment: Xanthine oxidase inhibitory activity
Format: biochemical
Details: absorbance at 290 nm
Protocol: (1) Preparation of Test Compounds
Test compounds were dissolved in DMSO (Wako) at 40 mM concentration and then diluted to intended concentrations with phosphate-buffered saline (PBS).
(2) Method for Measurement
Xanthine oxidase (from bovine milk, Sigma) was prepared with phosphate-buffered saline (PBS) at 0.02 units/mL, and then the solution was added to 96 well plates at 50 μL/well. In addition, test compounds diluted with PBS were added at 50 μL/well. Xanthine (Wako) at 200 μM prepared with PBS was added at 100 μL/well, and the reaction was conducted for 10 minutes at room temperature. Absorbance at 290 nm was measured using a microplate reader SpectraMax Plus 384 (Molecular device). The absorbance under a condition without xanthine is 0%, and control without test compounds is 100%. Fifty % inhibitory concentration of a test compound (IC50) was calculated (Tables 91 to 92). Ex. No in the table indicates Example number.

[1] = 0.02 units/mL, xanthine 200 μM, 10 minutes at room temperature

Chain of Xanthine oxidase (from bovine milk, Sigma) (P80457 whole entry): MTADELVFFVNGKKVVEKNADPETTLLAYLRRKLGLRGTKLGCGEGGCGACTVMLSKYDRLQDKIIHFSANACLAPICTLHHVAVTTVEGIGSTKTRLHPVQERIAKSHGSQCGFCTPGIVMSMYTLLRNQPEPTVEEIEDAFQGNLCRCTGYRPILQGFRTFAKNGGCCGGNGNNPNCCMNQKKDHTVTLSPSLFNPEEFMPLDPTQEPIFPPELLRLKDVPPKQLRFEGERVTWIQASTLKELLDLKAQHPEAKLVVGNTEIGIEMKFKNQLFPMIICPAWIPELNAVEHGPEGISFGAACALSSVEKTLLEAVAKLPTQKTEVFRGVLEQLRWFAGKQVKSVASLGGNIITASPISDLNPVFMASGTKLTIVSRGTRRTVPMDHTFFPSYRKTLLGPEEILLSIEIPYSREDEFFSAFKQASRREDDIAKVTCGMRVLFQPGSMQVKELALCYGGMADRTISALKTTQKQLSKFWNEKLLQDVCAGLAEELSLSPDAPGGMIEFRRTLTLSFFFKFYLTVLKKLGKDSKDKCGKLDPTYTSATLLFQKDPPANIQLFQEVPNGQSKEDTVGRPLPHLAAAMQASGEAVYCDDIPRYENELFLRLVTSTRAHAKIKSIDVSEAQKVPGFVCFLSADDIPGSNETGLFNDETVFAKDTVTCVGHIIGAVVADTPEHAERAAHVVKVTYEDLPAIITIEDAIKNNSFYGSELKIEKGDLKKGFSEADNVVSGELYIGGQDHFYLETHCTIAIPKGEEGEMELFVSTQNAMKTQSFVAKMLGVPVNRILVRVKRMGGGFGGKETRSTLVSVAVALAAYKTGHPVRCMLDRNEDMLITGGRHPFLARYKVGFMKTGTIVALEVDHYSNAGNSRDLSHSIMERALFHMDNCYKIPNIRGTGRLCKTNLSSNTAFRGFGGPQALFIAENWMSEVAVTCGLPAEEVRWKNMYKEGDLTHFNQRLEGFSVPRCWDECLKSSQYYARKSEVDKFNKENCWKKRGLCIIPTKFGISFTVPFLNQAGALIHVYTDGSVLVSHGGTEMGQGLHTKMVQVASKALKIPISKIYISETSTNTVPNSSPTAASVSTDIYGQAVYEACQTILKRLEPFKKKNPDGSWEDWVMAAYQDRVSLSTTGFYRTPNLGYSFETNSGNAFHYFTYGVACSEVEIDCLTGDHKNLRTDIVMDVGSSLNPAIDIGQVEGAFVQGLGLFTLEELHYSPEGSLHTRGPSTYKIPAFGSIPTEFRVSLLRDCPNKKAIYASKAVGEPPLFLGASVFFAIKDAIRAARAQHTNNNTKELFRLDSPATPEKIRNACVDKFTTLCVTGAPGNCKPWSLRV

IC50 [1] [nM]	IC50 (100 μM xanthine final) [nM]	SMILES
71.9	–	COc1cccc(COc2ccccc2-c2cn(-c3ccc(C(=O)O)cc3)cc2C#N)c1 [Example 184]
–	7.3	N#Cc1cn(-c2ccc(C(=O)O)c(O)c2)cc1-c1ccc2c(c1)OCCO2 [Example 305]
23	–	Cn1cc(-c2cn(-c3ccc(C(=O)O)cc3)cc2C#N)c2ccccc21 [Example 251]
25.6	–	N#Cc1cn(-c2ccc(C(=O)O)cc2)cc1-c1ccc2ccccc2c1 [Example 250]
–	12.2	COCCOc1ccc(-c2cn(-c3ccc(C(=O)O)c(O)c3)cc2C#N)cc1 [Example 347]
5.2	–	N#Cc1cn(-c2ccc(C(=O)O)c(F)c2)cc1-c1ccccc1 [Example 208]
83.8	–	Cc1ccccc1COc1ccccc1-c1cn(-c2ccc(C(=O)O)cc2)cc1C#N [Example 167]
15.1	–	N#Cc1cn(-c2ccc(C(=O)O)c(O)c2)cc1-c1cc(F)cc(F)c1 [Example 271]
–	11.2	COc1ccccc1CCc1cn(-c2ccc(C(=O)O)c(O)c2)cc1C#N [Example 294]
–	5.3	COc1cn(-c2ccc(C(=O)O)c(O)c2)cc1C#N [Example 282]
–	7.5	N#Cc1cn(-c2ccc(C(=O)O)c(O)c2)cc1-c1ccccc1Cl [Example 308]
9	–	Cc1c(CC(C)C)c(C#N)cn1-c1ccc(C(=O)O)cc1 [Example 242]
–	3.9	COc1ccc(-c2cn(-c3ccc(C(=O)O)c(O)c3)cc2C#N)cc1OC [Example 285]
–	7.9	N#Cc1cn(-c2ccc(C(=O)O)c(O)c2)cc1C(F)(F)F [Example 300]
–	5.2	Cn1cc(-c2cn(-c3ccc(C(=O)O)c(O)c3)cc2C#N)c2ccccc21 [Example 292]
5.9	–	N#Cc1cn(-c2ccc(C(=O)O)cc2)cc1-c1cccc(OCCCCO)c1 [Example 200]
41.4	–	N#Cc1cn(-c2ccc(C(=O)O)cc2)cc1-c1cccc(OCc2cccs2)c1 [Example 173]
17.1	–	CCCCc1c(C#N)cn(-c2ccc(C(=O)O)cc2)c1C [Example 2, 4-(3-Butyl-4-cyano-2-methylpyrrole-1-yl)benzoic acid]

IC50 [1] [nM]	IC50 (100 μM xanthine final) [nM]	SMILES
24.2	–	N#Cc1cn(-c2ccc(C(=O)O)c(O)c2)cc1-c1cccc(F)c1F [Example 270]
–	10.4	N#Cc1cn(-c2ccc(C(=O)O)c(O)c2)cc1/C=C/c1ccccc1 [Example 288]
4	–	N#Cc1cn(-c2ccc(C(=O)O)cc2)cc1-c1ccc(OCCO)cc1 [Example 154]
4.6	–	COCOc1ccccc1-c1cn(-c2ccc(C(=O)O)cc2)cc1C#N [Example 143]
–	6.1	Cc1cn(-c2ccc(C(=O)O)c(O)c2)cc1C#N [Example 359]
5.1	–	N#Cc1cn(-c2ccc(C(=O)O)cc2)cc1-c1ccccc1OCC(=O)O [Example 158]
–	87.8	N#Cc1cn(-c2ccc(C(=O)O)c(O)c2)cc1-c1cccc(OCc2ccccc2)c1 [Example 333]
–	7.9	CCOc1ccccc1-c1cn(-c2ccc(C(=O)O)c(O)c2)cc1C#N [Example 335]
–	5.3	N#Cc1ccc(-c2cn(-c3ccc(C(=O)O)c(O)c3)cc2C#N)cc1 [Example 331]
–	25	COc1cccc(-c2cn(-c3cc(C(=O)O)ccn3)cc2C#N)c1 [Example 367]
3.3	–	CCCCc1cn(-c2ccc(C(=O)O)cc2)cc1C#N [Example 240]
2.1	–	N#Cc1cn(-c2ccc(C(=O)O)cc2)cc1-c1cccc(O)c1 [Example 147]
111	–	COc1cccc(COc2cccc(-c3cn(-c4ccc(C(=O)O)cc4)cc3C#N)c2)c1 [Example 198]
–	7.7	COc1ccc(-c2cn(-c3ccc(C(=O)O)c(O)c3)cc2C#N)c(C)c1 [Example 276]
–	17	N#Cc1cn(-c2ccc(C(=O)O)c(O)c2)cc1-c1ccc(C(F)(F)F)cc1 [Example 318]
–	33.1	N#Cc1cn(-c2cc(C(=O)O)ccn2)cc1-c1ccc(Cl)cc1 [Example 365]
52.9	–	N#Cc1cn(-c2ccc(C(=O)O)cc2)cc1-c1cccc(OCc2ccccc2)c1 [Example 156]
